Test results published in ChEMBL document CHEMBL4340524, “Design and synthesis of a novel 1H-pyrrolo[3,2-b]pyridine-3-carboxamide derivative as an orally available ACC1 inhibitor” (Bioorg Med Chem, 2019).
Converted amounts (≈) assume the structure as drawn. The source made the active and inactive calls. The calls are words filed in the database; no cut-off is given here.

Legend:
[1] = target: T1, Acetyl-CoA carboxylase 1 (Homo sapiens, UniProt Q13085); test: Inhibition of recombinant human ACC1 expressed in Sf9 cells at 10 uM using acetyl Co-A as substrate preincubated for 60 mins followed by substrate addition and measured after 30 mins by RapidFire-Mass spectrometry relative to control
[2] = target: T2, Acetyl-CoA carboxylase 2 (Homo sapiens, UniProt O00763); test: Inhibition of recombinant human ACC2 expressed in Sf9 cells at 10 uM using acetyl Co-A as substrate preincubated for 60 mins followed by substrate addition and measured after 30 mins by RapidFire-Mass spectrometry relative to control
Target sequence in this assay (O00763 whole entry, looked up): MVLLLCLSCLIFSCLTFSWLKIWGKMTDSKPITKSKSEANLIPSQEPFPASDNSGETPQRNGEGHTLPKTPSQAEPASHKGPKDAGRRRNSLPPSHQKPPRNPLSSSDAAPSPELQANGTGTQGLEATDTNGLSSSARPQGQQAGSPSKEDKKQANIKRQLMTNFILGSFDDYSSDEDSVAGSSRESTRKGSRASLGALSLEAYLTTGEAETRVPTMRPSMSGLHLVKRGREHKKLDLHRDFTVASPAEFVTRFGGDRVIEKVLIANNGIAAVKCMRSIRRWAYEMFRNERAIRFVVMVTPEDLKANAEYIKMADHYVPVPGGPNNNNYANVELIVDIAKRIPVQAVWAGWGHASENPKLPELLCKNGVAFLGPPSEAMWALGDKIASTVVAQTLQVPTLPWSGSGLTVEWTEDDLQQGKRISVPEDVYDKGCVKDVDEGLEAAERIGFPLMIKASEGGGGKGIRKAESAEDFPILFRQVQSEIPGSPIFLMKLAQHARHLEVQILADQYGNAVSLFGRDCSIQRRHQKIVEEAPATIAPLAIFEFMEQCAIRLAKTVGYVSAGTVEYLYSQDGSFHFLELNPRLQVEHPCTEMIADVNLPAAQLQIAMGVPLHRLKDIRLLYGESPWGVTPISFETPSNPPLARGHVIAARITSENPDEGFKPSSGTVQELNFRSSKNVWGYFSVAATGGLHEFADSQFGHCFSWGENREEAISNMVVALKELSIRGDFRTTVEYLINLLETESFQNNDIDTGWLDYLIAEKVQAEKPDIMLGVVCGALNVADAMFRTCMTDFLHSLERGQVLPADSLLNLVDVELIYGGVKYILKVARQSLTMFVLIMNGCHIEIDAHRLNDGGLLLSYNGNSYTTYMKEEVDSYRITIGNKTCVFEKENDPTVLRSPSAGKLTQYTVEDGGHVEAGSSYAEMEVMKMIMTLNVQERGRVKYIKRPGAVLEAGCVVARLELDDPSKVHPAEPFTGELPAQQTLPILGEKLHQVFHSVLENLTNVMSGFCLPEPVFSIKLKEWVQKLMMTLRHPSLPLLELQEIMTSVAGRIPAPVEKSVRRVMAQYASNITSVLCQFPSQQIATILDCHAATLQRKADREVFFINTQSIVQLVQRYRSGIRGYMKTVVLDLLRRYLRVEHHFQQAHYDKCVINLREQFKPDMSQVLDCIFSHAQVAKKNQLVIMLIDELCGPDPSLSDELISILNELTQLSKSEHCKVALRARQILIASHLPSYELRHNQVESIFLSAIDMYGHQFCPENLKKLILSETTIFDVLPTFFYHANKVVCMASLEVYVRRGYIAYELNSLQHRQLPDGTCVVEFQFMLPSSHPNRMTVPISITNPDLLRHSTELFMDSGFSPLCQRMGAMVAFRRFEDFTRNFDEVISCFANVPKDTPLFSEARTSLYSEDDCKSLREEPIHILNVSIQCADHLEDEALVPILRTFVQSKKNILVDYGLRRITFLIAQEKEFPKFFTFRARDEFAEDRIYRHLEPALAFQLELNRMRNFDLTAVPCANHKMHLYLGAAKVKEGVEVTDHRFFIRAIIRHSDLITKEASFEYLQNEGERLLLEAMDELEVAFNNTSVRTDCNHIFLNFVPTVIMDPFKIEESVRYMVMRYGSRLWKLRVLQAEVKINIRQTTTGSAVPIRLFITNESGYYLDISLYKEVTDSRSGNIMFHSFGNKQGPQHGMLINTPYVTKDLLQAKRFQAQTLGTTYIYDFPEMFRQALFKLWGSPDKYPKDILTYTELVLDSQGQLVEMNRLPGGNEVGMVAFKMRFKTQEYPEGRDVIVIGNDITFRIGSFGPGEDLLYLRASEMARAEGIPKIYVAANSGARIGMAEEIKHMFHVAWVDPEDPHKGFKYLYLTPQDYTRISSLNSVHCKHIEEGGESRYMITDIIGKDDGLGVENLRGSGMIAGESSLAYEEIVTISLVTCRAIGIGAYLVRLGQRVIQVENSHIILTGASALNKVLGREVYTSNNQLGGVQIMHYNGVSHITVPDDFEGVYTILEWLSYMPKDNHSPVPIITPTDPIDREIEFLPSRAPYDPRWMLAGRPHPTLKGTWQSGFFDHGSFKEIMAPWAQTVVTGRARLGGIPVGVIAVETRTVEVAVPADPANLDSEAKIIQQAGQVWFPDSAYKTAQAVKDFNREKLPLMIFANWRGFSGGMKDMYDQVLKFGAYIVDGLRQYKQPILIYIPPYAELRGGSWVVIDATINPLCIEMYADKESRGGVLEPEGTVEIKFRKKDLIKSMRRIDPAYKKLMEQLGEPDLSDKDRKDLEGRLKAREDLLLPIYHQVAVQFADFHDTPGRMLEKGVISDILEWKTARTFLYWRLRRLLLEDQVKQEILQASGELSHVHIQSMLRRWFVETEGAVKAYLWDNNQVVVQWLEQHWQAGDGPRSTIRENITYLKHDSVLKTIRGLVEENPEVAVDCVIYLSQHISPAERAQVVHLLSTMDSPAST

[3] = target: T1, Acetyl-CoA carboxylase 1; test: Inhibition of recombinant human ACC1 expressed in Sf9 cells using acetyl Co-A as substrate preincubated for 60 mins followed by substrate addition and measured after 30 mins by RapidFire-Mass spectrometry
[4] = target: T1, Acetyl-CoA carboxylase 1; test: Inhibition of ACC1 in human HCT116 cells assessed as reduction in [14C]acetate uptake preincubated for 60 mins followed by [14C]acetate addition and measured after 2 hrs by top count scintillation counting method; format: cell-based
[5] = target: T2, Acetyl-CoA carboxylase 2; test: Inhibition of recombinant human ACC2 expressed in Sf9 cells using acetyl Co-A as substrate preincubated for 60 mins followed by substrate addition and measured after 30 mins by RapidFire-Mass spectrometry
Target sequence in this assay (O00763 whole entry): as the sequence (O00763 whole entry, looked up) above

[6] = Solubility of the compound in pH 6.8 aqueous buffer by HPLC analysis; format: physicochemical
[7] = organism: Homo sapiens; test: Selectivity ratio of IC50 for recombinant human ACC2 expressed in Sf9 cells to IC50 for recombinant human ACC1 expressed in Sf9 cells
[8] = AUC (0 to 8 hrs) in ICR mouse at 0.1 mg/kg, iv or 1 mg/kg, po administered as cassette dose by LC-MS/MS analysis; format: ADME, organism-based; conditions: in vivo
[9] = Oral bioavailability in ICR mouse at 1 mg/kg administered as cassette dose by LC-MS/MS analysis; format: ADME, organism-based; conditions: in vivo
[10] = system: Mus musculus; test: In vivo inhibition of ACC1 in BALB/cA Jc1-nu/nu mouse xenografted with human HCT116 cells assessed as suppression of malonyl-CoA synthesis at 100 mg/kg, po administered as single dose measured after 16 hrs by RPLC-MS/MS analysis; format: functional, organism-based

inhibition [1]	inhibition [2]	IC50 [3]	IC50 [4]	IC50 [5]	solubility [6]	AUC(0-t) [8]	bioavailability [9]	SMILES	Ratio IC50 [7]	inhibition [10]
7%	6%							CN(C(=O)c1cn(C)c2cc(-c3ccccc3)cnc12)c1ccc2[nH]ncc2c1		
		210 nM	490 nM	2200 nM				CC(C)n1cc(C(=O)Nc2ccc3[nH]ncc3c2)c2ncc(-c3ccc(N)cc3)cc21		
-7%	-8%							O=C(Nc1ccc2[nH]ncc2c1)c1c[nH]c2cc(-c3ccccc3)ccc12		
99%	83%	820 nM	430 nM	4000 nM	60 µg/mL (≈ 163 µM)	189 ng·h/mL	39.3%	Cn1cc(C(=O)Nc2ccc3[nH]ncc3c2)c2ncc(-c3ccccc3)cc21	5	
		170 nM	150 nM	2000 nM		647 ng·h/mL	63.2%	CC(C)n1cc(C(=O)Nc2cc3cn[nH]c3cc2F)c2ncc(-c3ccc(N)cc3)cc21		Active
		1000 nM	130 nM	3700 nM	< 60 µg/mL	653 ng·h/mL	57.7%	CCn1cc(C(=O)Nc2ccc3[nH]ncc3c2)c2ncc(-c3ccccc3)cc21		
69%								Cn1cc(C(=O)Nc2ccc3[nH]ccc3c2)c2ncc(-c3ccccc3)cc21		
51%	31%							Cn1cc(C(=O)Nc2ccc3[nH]cnc3c2)c2ncc(-c3ccccc3)cc21		
45%	4%							O=C(Nc1ccc2[nH]ncc2c1)c1c[nH]c2cc(-c3ccccc3)cnc12		
26%								Cn1cc(C(=O)Nc2ccc3c(cnn3C)c2)c2ncc(-c3ccccc3)cc21		

SMILES	inhibition [1]	inhibition [2]	IC50 [3]	IC50 [4]	IC50 [5]	solubility [6]	AUC(0-t) [8]	bioavailability [9]	Ratio IC50 [7]	inhibition [10]
CC(C)n1cc(C(=O)Nc2ccc3[nH]ncc3c2)c2ncc(-c3ccccc3)cc21			1600 nM	> 1000 nM	6400 nM	3200 µg/mL (≈ 8090 µM)	1700 ng·h/mL	59.8%		
